The values below come from US8492582B2, “N-acyl anthranilic acid derivative or salt thereof” (Toyama Chemical Co., Ltd., priority 2009, dated 2013).

Assay [1] deals with type I collagen α1 chain mRNA in WI-38 cells. Description: Type I collagen α1 chain mRNA expression inhibition test. The assay is classed as cell-based. The conditions noted are these: Homo sapiens, read-out: Inhibition rate (%) at 10 μmol/L. As to the method: Human embryonic lung fibroblast cell line WI-38 cells were suspended in a Dulbecco's modified Eagle's medium containing 10% fetal calf serum, and 7.5×10^4 cells were inoculated on a 12-well plate and cultured for 3 days, or 1.5×10^5 cells were inoculated and cultured for 2 days. After the growth of the cells to a subconfluent state, the culture medium was changed to a Dulbecco's modified Eagle's medium containing 0.4% fetal calf serum and 50 μg/mL ascorbic acid, and the cells were further cultured for 24 hours. Then, a test compound was added thereto, and, one hour later, TGF-β1 was added at a final concentration of 1 ng/mL. Twenty-four hours after the addition, the total RNA was extracted from the cells using an RNA extraction kit (SV Total RNA Isolation System, Promega), and cDNA was synthesized using a reverse transcriptase (ReverTra Ace, TOYOBO). The expression level of the type I collagen al chain mRNA was analyzed with a real-time PCR instrument (ABI PRISM 7700 Sequence Detection System, Applied Biosystems) by a real-time PCR method using a premix reagent of real-time PCR (SYBR Premix Ex Taq or SYBR Premix Ex Taq II (Perfect Real Time), TaKaRa). A PCR reaction was conducted with diluted cDNA as a template, using primers specific for a type I collagen α1 chain gene or a GAPDH gene as an internal standard, and the reaction product was measured. The PCR reaction was conducted by incubation at 95° C. for 10 seconds and 45 cycles of denaturation at 95° C. for 5 seconds and annealing/extension at 60° C. for 30 seconds. The expression level of the type I collagen α1 chain mRNA was corrected with GAPDH and was expressed as a relative value when the expression level obtained in the absence of the test compound was defined as 100%.

Assay [2] concerns bleomycin-induced lung fibrosis (lung collagen amount). Description: Mouse bleomycin-induced lung fibrosis. The assay is classed as in vivo, mice C57BL/6N. The conditions noted are these: po, 672 h, read-out: lung collagen amount low compared with that of the control group. As to the method:
The test was conducted using 8- to 10.5-week-old male mice C57BL/6N (Charles River Laboratories Japan, Inc.). Bleomycin (Nippon Kayaku Co., Ltd.) was dissolved in physiological saline in a concentration of 1.0 or 1.5 mg/mL, and 2 μL/g thereof was intranasally administered to each mouse to evoke lung fibrosis. A test compound was dissolved or suspended in a 10% aqueous solution of polyoxyethylene castor oil (trade name: Cremophor EL) or in water and orally administered in an amount of 10 mg/kg twice a day from the 14th to the 28th day from the evocation. In a control group, a 10% aqueous solution of polyoxyethylene castor oil or water was administered in the same manner. The lung was extracted from each mouse on the 28th day from the evocation, and collagen was quantitatively measured. The extracted lung was homogenized in a 0.5 mol/L aqueous solution of acetic acid containing a protease inhibitor cocktail (Complete, EDTA-free, Roche Diagnostics) in an amount of one tablet/50 mL, and water-soluble collagen was extracted in the presence of 10 mg/mL pepsin (Sigma) overnight. The amount of collagen was measured using a kit (Sircol Soluble Collagen assay kit, Biocolor).
The inhibition rate was determined by the following expression: Inhibition rate (%)=[1−(lung collagen amount in test compound administration group)/(lung collagen amount in control group)]×100

The target in a further assay is T1, CYP2C9 (Homo sapiens, UniProt P11712).
T1 construct: Pooled human liver microsome was used, and tolbutamide was used as a substrate; from tissue; host or cells: pooled human liver microsomes
Description: Hepatic drug-metabolizing enzyme inhibitory activity in humans (CYP2C9). The conditions noted are these: pooled human liver microsome, tolbutamide 200 μmol/L, 37° C., 30 minutes; 80a as free base; read-out: IC50 (CYP2C9, tolbutamide metabolite). The assay is classed as in vitro ADME. As to the method:
As test compounds, the compounds of Examples 80a, 83a, 108a, 117a, 123a, 128a, 139a, 142a, and 143a were used. Note that the compound of Example 80a was used in the form of free base.
Pooled human liver microsome was used, and tolbutamide was used as a substrate. The reaction was performed in a phosphate buffer (100 mmol/L, pH 7.4), and the final concentrations in the reaction system were adjusted to 0.5 mg/mL of human liver microsome protein, 200 μmol/L of the substrate, 1.55 mmol/L of oxidized nicotinamide adenine dinucleotide phosphate (NADP+), 3.3 mmol/L of glucose-6-phosphate, 3.3 mmol/L of magnesium chloride, and 0.4 Units/mL of glucose-6-phosphate dehydrogenase (G6PDH). The final concentration of each compound in the reaction solution was adjusted to 0.08 to 50 μg/mL. These reaction solutions were each subjected to reaction at 37° C. for 30 minutes. The reaction was terminated with an equal amount of acetonitrile. After centrifugation, the concentration of a tolbutamide metabolite in the supernatant was quantitatively measured by LC-MS/MS. The inhibitory activity was determined as IC50. As a positive control, sulfaphenazole was used.

Where [3] appears, read: 10 μmol/L test compound, WI-38 cells, TGF-β1 1 ng/mL, 24 hours, Table 4a.
The mark [4] stands for this setting: orally 10 mg/kg twice a day, 14th to 28th day, lung on 28th day, 23a, 1b, 7c as sodium salts, 122a, 143a as hydrochloric acid salts.

pIC50: −log10 of the molar value. Where a name gives a salt, the structure may show the parent alone. Read-outs that look alike come from different tables or passages of the source.

T1 sequence (P11712 whole entry): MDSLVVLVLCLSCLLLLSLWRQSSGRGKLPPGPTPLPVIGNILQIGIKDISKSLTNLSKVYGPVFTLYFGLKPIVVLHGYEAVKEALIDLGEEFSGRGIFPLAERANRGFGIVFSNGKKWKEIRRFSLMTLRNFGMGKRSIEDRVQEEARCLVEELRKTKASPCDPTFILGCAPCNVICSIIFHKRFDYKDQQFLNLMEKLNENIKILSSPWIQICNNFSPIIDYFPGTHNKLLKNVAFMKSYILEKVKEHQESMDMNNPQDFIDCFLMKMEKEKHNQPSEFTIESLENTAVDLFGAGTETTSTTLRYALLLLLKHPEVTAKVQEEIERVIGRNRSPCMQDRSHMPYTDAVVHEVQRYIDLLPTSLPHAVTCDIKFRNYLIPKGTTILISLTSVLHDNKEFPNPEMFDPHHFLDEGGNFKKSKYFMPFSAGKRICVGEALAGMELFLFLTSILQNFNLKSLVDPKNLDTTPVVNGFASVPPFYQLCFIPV

As for `O=C(Nc1cc(-c2ccoc2)ccc1C(=O)O)c1cncc(-c2ccccc2)c1` [57b, Sodium 4-(furan-3-yl)-2-(5-phenylpyridine-3-carboxamido)benzoate], the inhibition at 10 µM in assay [1] (WI-38, 24 h) turned out to be 84%. Besides, the inhibition in vivo at 10 mg/kg in assay [2] was at least 30%.
Consider `O=C(Nc1cc(-c2ccccc2)ccc1C(=O)O)c1cc(-c2cccnc2)ccc1O` [Example 23a, 2-(2-hydroxy-5-(pyridin-3-yl)benzamido)-4-phenylbenzoic acid], for which, in assay [1] (setting [3]), the inhibition at 10 µM is 91%. In addition, the inhibition in vivo at 10 mg/kg in assay [2] (setting [4]) was at least 30%.
Consider `O=C(Nc1cc(-c2ccccc2)ccc1C(=O)O)c1cc(N2CCOCC2)ccc1O` [Example 83a, 2-(2-Hydroxy-5-(morpholin-4-yl)benzamido)-4-phenylbenzoic acid hydrochloride], for which the inhibition at 10 µM in assay [1] (setting [3]) was 88%. The inhibition in vivo at 10 mg/kg in assay [2] (setting [4]) is at least 30%. In addition, on CYP2C9, the pIC50 was below 3.96.
In the case of `O=C(Nc1cc(-c2ccccc2)ccc1C(=O)O)c1ccc(N2CCCCC2)cc1O` [Example 100a, 2-(2-hydroxy-4-(piperidin-1-yl)benzamido)-4-phenylbenzoic acid], the inhibition at 10 µM in assay [1] (setting [3]) stood at 99%.
Consider `CCN(CC)CCN(C)c1ccc(O)c(C(=O)Nc2cc(-c3ccccc3)ccc2C(=O)O)c1` [Example 102a, 2-(5-((2-(Diethylamino)ethyl)(methyl)amino)-2-hydroxybenzamido)-4-phenylbenzoic acid], for which the inhibition at 10 µM in assay [1] (setting [3]) stood at 89%.
Still for that read-out and setting: then `CCN(CCN(C)C)c1ccc(O)c(C(=O)Nc2cc(-c3ccccc3)ccc2C(=O)O)c1` [Example 104a, 2-(5-((2-(Dimethylamino)ethyl)(ethyl)amino)-2-hydroxybenzamido)-4-phenylbenzoic acid], with 92%.
In the case of `CN1CCC(Oc2ccc(O)c(C(=O)Nc3cc(-c4ccccc4)ccc3C(=O)O)c2)CC1` [Example 108a, 2-(2-hydroxy-5-((1-methylpiperidin-4-yl)oxy)benzamido)-4-phenylbenzoic acid hydrochloride], in assay [1] (setting [3]), the inhibition at 10 µM turned out to be 94%. For the same molecule, in assay [2], the inhibition in vivo at 10 mg/kg was at least 30%. Besides, the pIC50 on CYP2C9 was below 3.95.
Take `CN(C)CCOc1ccc(O)c(C(=O)Nc2cc(-c3ccccc3)ccc2C(=O)O)c1` [Example 109a, 2-(5-(2-(Dimethylamino)ethoxy)-2-hydroxybenzamido)-4-phenylbenzoic acid hydrochloride]: in assay [1] (setting [3]), the inhibition at 10 µM turned out to be 91%.
Same read-out and setting: then `O=C(Nc1cc(-c2ccccc2)ccc1C(=O)O)c1cc(Oc2ccccc2)ccc1O` [Example 115a, 2-(2-hydroxy-5-phenoxybenzamido)-4-phenylbenzoic acid], with 98%.
As for `CN1CCN(CCc2ccc(O)c(C(=O)Nc3cc(-c4ccccc4)ccc3C(=O)O)c2)CC1` [Example 117a, 2-(2-hydroxy-5-(2-(4-methylpiperazin-1-yl)ethyl)benzamido)-4-phenylbenzoic acid dimethanesulfonate], in assay [1] (setting [3]), the inhibition at 10 µM was found to be 90%. In addition, on CYP2C9, the pIC50 was below 3.96.
For the molecule `CCN1CCN(Cc2ccc(O)c(C(=O)Nc3cc(-c4ccccc4)ccc3C(=O)O)c2)CC1` [Example 123a, 2-(5-((4-Ethylpiperazin-1-yl)methyl)-2-hydroxybenzamido)-4-phenylbenzoic acid dimethanesulfonate], the negative-log IC50 (pIC50) on CYP2C9 is below 4.12.
For `CNC1CCN(Cc2ccc(O)c(C(=O)Nc3cc(-c4ccccc4)ccc3C(=O)O)c2)CC1` [Example 126a, 2-(2-Hydroxy-5-((4-(methylamino)piperidin-1-yl)methyl)benzamido)-4-phenylbenzoic acid dimethanesulfonate], in assay [1] (setting [3]), the inhibition at 10 µM was determined as 79%.
Take `CN(C)C1CCN(Cc2ccc(O)c(C(=O)Nc3cc(-c4ccccc4)ccc3C(=O)O)c2)CC1` [Example 128a, 2-(5-((4-(Dimethylamino)piperidin-1-yl)methyl)-2-hydroxybenzamido)-4-phenylbenzoic acid dimethanesulfonate]: the pIC50 on CYP2C9 is below 3.98.
For the molecule `CN(C)CCN(C)Cc1ccc(O)c(C(=O)Nc2cc(-c3ccccc3)ccc2C(=O)O)c1` [Example 134a, 2-(5-(((2-(dimethylamino)ethyl)(methyl)amino)methyl)-2-hydroxybenzamido)-4-phenylbenzoic acid], the inhibition at 10 µM in assay [1] (setting [3]) was 90%.
On the same count and under the same terms, then `CN1CCN(CCCOc2ccc(O)c(C(=O)Nc3cc(-c4ccccc4)ccc3C(=O)O)c2)CC1` [Example 141a, 2-(2-hydroxy-5-(3-(4-methylpiperazin-1-yl)propoxy)benzamido)-4-phenylbenzoic acid dimethanesulfonate], with 92%.
In the case of `CN1CCN(CCOc2ccc(O)c(C(=O)Nc3cc(-c4ccccc4)ccc3C(=O)O)c2)CC1` [Example 142a, 2-(2-hydroxy-5-(2-(4-methylpiperazin-1-yl)ethoxy)benzamido)-4-phenylbenzoic acid dimethanesulfonate], in assay [1] (setting [3]), the inhibition at 10 µM came out at 90%. Also, the negative-log IC50 (pIC50) at CYP2C9 is below 3.98.
Consider `CCN1CCN(CCOc2ccc(O)c(C(=O)Nc3cc(-c4ccccc4)ccc3C(=O)O)c2)CC1` [Example 143a, 2-(5-(2-(4-ethylpiperazin-1-yl)ethoxy)-2-hydroxybenzamido)-4-phenylbenzoic acid dimethanesulfonate], for which, in assay [1] (setting [3]), the inhibition at 10 µM was 89%. Also, the inhibition in vivo at 10 mg/kg in assay [2] (setting [4]) was at least 30%. For the same molecule, the negative-log IC50 (pIC50) on CYP2C9 was below 3.99.
Consider `O=C(Nc1cc(-c2ccccc2)ccc1C(=O)O)c1cc(OCCN2CCNCC2)ccc1O` [Example 144a, 2-(2-hydroxy-5-(2-(piperazin-1-yl)ethoxy)benzamido)-4-phenylbenzoic acid dimethanesulfonate], for which, in assay [1] (setting [3]), the inhibition at 10 µM came to 96%.
Same read-out and setting: as for `Cc1ccccc1-c1ccc(C(=O)O)c(NC(=O)c2cc(N3CCCCC3)ccc2O)c1` [Example 148a, 2-(2-hydroxy-5-(piperidin-1-yl)benzamido)-4-(2-methylphenyl)benzoic acid], the figure is 93%; as for `Cc1cccc(-c2ccc(C(=O)O)c(NC(=O)c3cc(N4CCCCC4)ccc3O)c2)c1` [Example 149a, 2-(2-Hydroxy-5-(piperidin-1-yl)benzamido)-4-(3-methylphenyl)benzoic acid], 97%.
On the same count and under the same terms, as for `Cc1ccc(-c2ccc(C(=O)O)c(NC(=O)c3cc(N4CCCCC4)ccc3O)c2)cc1` [Example 150a, 2-(2-Hydroxy-5-(piperidin-1-yl)benzamido)-4-(4-methylphenyl)benzoic acid], the figure is 93%.
